According to article PMC5384220 (Nature Communications, 2017):
“Also recorded” adds a separate entry of the source.

Tests used:
His-KDM4A1-359 = biological target: T1, His-KDM4A1-359 (Homo sapiens, UniProt O75164); assay: Formaldehyde dehydrogenase coupled KDM assay (mode of inhibition); type: biochemical
T1 construct: using 0.5 μM His-KDM4A1–359; made in house
T1 sequence (O75164 1-359): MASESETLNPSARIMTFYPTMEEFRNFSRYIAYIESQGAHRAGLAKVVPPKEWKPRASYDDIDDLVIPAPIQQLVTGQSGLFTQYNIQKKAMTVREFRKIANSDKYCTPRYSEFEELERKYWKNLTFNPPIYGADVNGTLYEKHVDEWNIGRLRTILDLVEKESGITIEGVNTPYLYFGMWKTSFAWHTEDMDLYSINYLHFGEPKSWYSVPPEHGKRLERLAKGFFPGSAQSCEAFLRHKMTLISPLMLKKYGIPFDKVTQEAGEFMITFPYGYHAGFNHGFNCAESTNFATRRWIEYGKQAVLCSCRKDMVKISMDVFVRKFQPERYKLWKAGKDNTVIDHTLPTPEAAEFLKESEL
Description: The formaldehyde dehydrogenase coupled KDM assay was used to determine the mode of inhibition[34], using 0.5 μM His-KDM4A1–359. Prism 5.0 (GraphPad) was used to fit in mix-mode inhibition, to determine the kinetic parameters. Binding constants for CPs and H3(1–15)K9me3 were measured using biolayer interferometry (OctetRed 384, ForteBio) in buffer (50 mM HEPES (pH 7.5), 150 mM NaCl, 10 μM ammonium iron(II) sulphate). His-KDM4A1–359-Bio (70 nM) was immobilized onto super streptavidin biosensor and subjected to different peptide concentrations in buffer. Data analysis was performed using ForteBio Data Aalysis (v6.4).
KDM4A1-359 was immobilized and analysed for binding to peptides at different concentrations.
The concentration of KDM4A in the assay mixture was 0.5 µM.

KDM4A = biological target: T2, KDM4A (Homo sapiens, UniProt O75164); assay: AlphaScreen demethylase activity assay, KDM4A; type: biochemical; settings: ratio of IC50 values
T2 construct: KDM4A 1-359 E.coli; Hexa-His (N); made in house; host or cells: E. coli
T2 sequence (O75164 1-359): T1 sequence (O75164 1-359)
Description: IC50 values for KDM2–6 were measured using an AlphaScreen assay as described. The appropriate KDM (5 μl) was pre-incubated with an inhibitor (0.1 μl in DMSO) or DMSO for 15 min before the addition of 5 μl mixture of biotinylated peptide substrates, 2OG, ferrous ammonium sulfate (1–10 μM final) and ascorbate (100 μM final) to initiate the demethylation reaction. The reaction was quenched with 5 μl of 30 mM EDTA at predetermined reaction times for each enzyme (initial rate). Demethylated product was detected by addition of 5 μl of AlphaScreen donor and acceptor beads (AlphaScreen General IgG Detection Kit, 0.02 mg ml^−1 final each) pre-incubated with antibody. The plates were read after 1 h incubation in a BMG Labtech Pherastar FS plate reader. Data were normalized to a no enzyme control and IC50 values were calculated using nonlinear regression curve fits using GraphPad Prism. Assay buffer (50 mM HEPES pH 7.5, BSA (0.1% w/v) and Tween-20 (0.01% v/v)) was used throughout, except for dilution of stock ferrous ammonium sulfate solutions where water was used. The enzyme, substrate and antibody concentrations used are described in Supplementary Table 3. A fluorescence-based LSD1 inhibitor screening assay kit (Cayman, 700120) was used for KDM1/LSD1 assay. Assays for prolyl hydroxylase domain 2 and factor inhibiting HIF using matrix-assisted laser desorption/ionization–time of flight MS were performed as previously described. Prism 5.0 (GraphPad) was used to generate and to fit dose–response curves. IC50 values were determined by plotting percentage inhibition versus compound concentration relative to positive (vehicle) and negative (no enzyme) controls, using normalized dose–response (variable slope) fit. The reported values are the mean of multiple experiments (n≥3). The formaldehyde dehydrogenase coupled KDM assay was used to determine the mode of inhibition, using 0.5 μM His-KDM4A1–359. Prism 5.0 (GraphPad) was used to fit in mix-mode inhibition, to determine the kinetic parameters. Binding constants for CPs and H3(1–15)K9me3 were measured using biolayer interferometry (OctetRed 384, ForteBio) in buffer (50 mM HEPES (pH 7.5), 150 mM NaCl, 10 μM ammonium iron(II) sulphate). His-KDM4A1–359-Bio (70 nM) was immobilized onto super streptavidin biosensor and subjected to different peptide concentrations in buffer. Data analysis was performed using ForteBio Data Aalysis (v6.4).
Construct Expression [E] / nM [2OG] / µM [Fe(II)] / µM Peptide / nM Peptide sequence Antibody Source […]
Supplementary Table 3. AlphaScreen assay parameters for 2OG oxygenases used for this study. The table was dapted from 10. Assays were performed at 2OG concentration near the 2OG Km values determined experimentally.11 All enzymes were expressed and purified as described.10-12

[1] = test system: H3K9me3/H3K36me3 in HeLa cells; assay: Immunofluorescence of global histone methylation, 72 h dosing; type: cell-based; settings: 72 h treatment
From the text: Supplementary Figure 12. Immunofluorescence analysis of global histone methylation levels after 72hr dosing of cyclic peptides in HeLa cells. (a)-(c) Immunofluorescence analysis of HeLa cells dosed with cyclic peptides for 72 hrs. Maximum intensity projected images of 3D confocal z-stacks showing nuclei stained with […]
DMSO and CP2 treated cells. Bar represents 50µm. Global H3K9me3 (d) and associated nuclei count for the […]
staining, (h) global H3K4me3 and (i) global H3K27me3 staining. An increase in fluorescence intensity, […]
over certain concentration ranges. Average +/- s.e.m (n > 100 cells) are shown except at concentrations of […]
A generic 2OG oxygenase inhibitor 5-carboxy-8-
Immunofluorescence (IF) assay […]
with 0.5% FBS and 1% Pen-Strep. […]
grade plate (Becton Dickinson) and left overnight to adhere. Cells were dosed with cyclic […]
After 30min blocking (3% FBS in […]
three times after each incubation. […]
Image acquisition and analysis […]
image immunostained cells in a 96-well plate configuration. For each well, the system […]
The average intensity for each […]
analysed using GraphPad Prism 5. […]

DYVYNTRSGWRWYTC [CP2]
α (mixed-mode inhibition parameter) (His-KDM4A1-359; FDH assay, 0.5 µM KDM4A): 4.73 | Mode of inhibition with respect to H3K9me3 (His-KDM4A1-359; kinetic analyses): competitive inhibitor | Intra-subfamily selectivity KDM4A-C over KDM4D-E (KDM4A): > 100 fold | Selectivity by IC50 for KDM4 over other JmjC-demethylase families, PHD2, FIH and KDM1A (KDM4A): > 160 fold | Change in global H3K9me3/H3K36me3 levels [1]: did not have any apparent effect; also recorded: no discernible changes
